In data set [1] the test system is C2C12. As to the kind of experiment: Induction of glucose consumption in mouse C2C12 cells at 10 uM measured after 12 hrs (reference value: 100%). The class given is functional.
Data set [2] has as its system C2C12. As to the kind of experiment: Agonist activity at adiponectin receptor in mouse C2C12 cells assessed as increase in AMPK phosphorylation at 10 uM measured after 2 hrs by Western blot analysis. The format is cell-based. The conditions noted are these: filed as agonist.
The nature of data set [3]: Intrinsic clearance in mouse liver microsomes preincubated for 5 mins followed by NADPH addition measured after 45 mins by LC/MS analysis. The class given is ADME, Microsome. The conditions noted are these: time 50 min, read-out: CLH. For orientation: Liver microsomes are a subcellular fraction often used to study metabolism.
A short description of data set [4]: Stability in human liver microsomes assessed as parent compound remaining preincubated for 5 mins followed by NADPH addition measured after 45 mins by LC/MS analysis. The class given is ADME, Microsome. The conditions noted are these: time 50 min, read-out: Stability.
Data set [5] is described as follows: Half life in human liver microsomes by LC/MS analysis. The class given is ADME, Microsome.
A short description of data set [6]: Half life in mouse liver microsomes by LC/MS analysis. The class given is ADME, Microsome.
A short description of data set [7]: Stability in mouse liver microsomes assessed as parent compound remaining preincubated for 5 mins followed by NADPH addition measured after 45 mins by LC/MS analysis. The conditions noted are these: time 50 min, read-out: Stability. The format is ADME, Microsome.
Data set [8] can be described thus: Agonist activity at adiponectin receptor in mouse C2C12 cells assessed as increase in AMPK phosphorylation. The class given is cell-based.
Data set [9] concerns Mus musculus. The data set can be described thus: Hypoglycemic activity in lean C57BL/6J mouse assessed as reduction in blood glucose level at 100 mg/kg, IG administered 2 hrs prior to glucose challenge measured up to 90 mins by IPGTT. The class given is functional, organism-based. The conditions noted are these: time 3.5 hrs.
Data set [10] deals with Mus musculus. As to the kind of experiment: Hypoglycemic activity in lean C57BL/6J mouse assessed as reduction in blood glucose level at 10 mg/kg, IG administered 2 hrs prior to glucose challenge measured up to 90 mins by IPGTT. The format is functional, organism-based. The conditions noted are these: time 3.5 hrs.
Data set [11] concerns C2C12. The data set can be described thus: Cytotoxicity against mouse C2C12 cells at 5 to 20 uM measured after 72 hrs by MTT assay. The format is toxicity, cell-based. The conditions noted are these: c2c12, 72 h, dose 5-20 µM. (In general: Formazan colour is commonly taken as a measure of viable cells.)
Data set [12] deals with HepG2. The data set can be described thus: Induction of AMPK in human HepG2 cells at 10 uM measured after 0.5 to 12 hrs by Western blot analysis. The class given is cell-based. The conditions noted are these: filed as activator, time 0.5-12 hrs.
Data set [13] can be described thus: Toxicity in db/db mouse assessed as effect on body weight at 100 mg/kg, IG administered once daily for 2 to 6 weeks measured weekly during compound dosing. The class given is organism-based. The conditions noted are these: in vivo, po, time 2-6 weeks.
Data set [14] concerns Mus musculus. As to the kind of experiment: Anti-hyperglycemic activity in db/db mouse assessed as improvement in insulin resistance at 100 mg/kg, IG administered once daily for 6 weeks by insulin tolerance test. The class given is functional, organism-based.
In data set [15] the test system is HepG2. The data set can be described thus: Induction of AMPK phosphorylation in human HepG2 cells at 0.1 to 20 uM measured after 2 hrs by Western blot analysis. The class given is cell-based. The conditions noted are these: filed as activator, dose 0.1-20 µM. (A western blot detects proteins with antibodies after separation by electrophoresis.)
Data set [16] concerns the target 5'-AMP-activated protein kinase (Mus musculus) (UniProt Q5EG47+Q8BRK8+Q6PAM0+O54950+Q91WG5+Q9R078+Q8BGM7). The data set can be described thus: Induction of AMPK phosphorylation in mouse C2C12 cells at 10 uM measured after 1 to 12 hrs by Western blot analysis. The class given is cell-based. The conditions noted are these: filed as activator, time 1-12 hrs.
Data set [17] deals with Mus musculus. As to the kind of experiment: Hypoglycemic activity in IG dosed lean C57BL/6J mouse assessed as reduction in blood glucose level administered 2 hrs prior to glucose challenge measured up to 90 mins by IPGTT. The conditions noted are these: dose 50-100 mg/kg, time 3.5 hrs. The class given is functional, organism-based.
Data set [18] addresses T1, Acetyl-CoA carboxylase (Homo sapiens) (UniProt Q13085+O00763). The data set can be described thus: Induction of ACC phosphorylation in human HepG2 cells measured after 2 hrs by Western blot analysis. The format is cell-based. The conditions noted are these: filed as activator, dose 0.1-20 µM.
In data set [19] the test system is C2C12. As to the kind of experiment: Agonist activity at adiponectin receptor in mouse C2C12 cells assessed as increase in ACC phosphorylation measured after 2 hrs by Western blot analysis. The format is cell-based. The conditions noted are these: filed as agonist, dose 0.1-20 µM.
The subject of data set [20] is HepG2. As to the kind of experiment: Cytotoxicity against human HepG2 cells at 5 to 20 uM measured after 72 hrs by MTT assay. The class given is toxicity, cell-based. The conditions noted are these: hepg2, 72 h, dose 5-20 µM.
For data set [21], the target named is T1, Acetyl-CoA carboxylase (Homo sapiens). As to the kind of experiment: Induction of ACC phosphorylation in human HepG2 cells measured at 10 uM by Western blot analysis. The class given is cell-based. The conditions noted are these: filed as activator, time 0.5-12 hrs, TDE = time-dependent effect.
Data set [22] has as its system Mus musculus. The data set can be described thus: Anti-hyperglycemic activity in db/db mouse assessed as reduction in blood glucose level at 100 mg/kg, IG administered once daily for 2 to 6 weeks measured weekly during compound dosing. The class given is functional, organism-based. The conditions noted are these: time 2-6 weeks.
The nature of data set [23]: Intrinsic clearance in human liver microsomes preincubated for 5 mins followed by NADPH addition measured after 45 mins by LC/MS analysis. The format is ADME, Microsome. The conditions noted are these: time 50 min, read-out: CLH.

Activity calls are given as the source filed them.

The compound `COc1ccc(/C=C/C(=O)N2CCN(C(=O)C(C)(C)Oc3ccc(C(=O)c4ccc(Cl)cc4)cc3)CC2)cc1OC` came in with an Activity with C2C12 [1] of 138.5%. Moreover, the outcome in the data set on C2C12 [2] was Active.
In turn, `COc1ccc(/C=C/C(=O)NC2CCN(C(=O)C(C)(C)Oc3ccc(C(=O)c4ccccc4)cc3)CC2)cc1OC` gave an Activity in the data set with C2C12 [1] of 116.7%. Further, the outcome in the data set with C2C12 [2] was Active.
On to `O=C(c1ccc(F)cc1)C1CCN(CCn2c(=O)[nH]c3ccccc3c2=O)CC1` [KETANSERIN], for which the CLint scaled in [3] stood at 245 mL/min/kg. The remaining at 0.75 h in [4] came out at 31%; in data set [7], 29%. Moreover, the values for the half-life in [5] and in data set [6] were 28 min and 26 min, respectively.
Consider `COc1ccc(/C=C/C(=O)N2CCN(C(=O)C(C)(C)Oc3ccc(C(=O)c4ccccc4)cc3)CC2)cc1OC`, for which the Activity in the data set on C2C12 [1] is given as 135.8%. In addition, the result in the data set with C2C12 [2] was Active.
Turning to `O=C(COc1ccc(C(=O)c2ccccc2)cc1)NC1CCN(Cc2ccccc2)CC1`, the EC50 (in general, the concentration giving half of the maximal effect) in data set [8] was ~10 µM. Besides, the result in the data set with Mus musculus [9] and in the data set on C2C12 [2] was Active. Further, in the data set with C2C12 [1], the Activity is listed as 135.2%.
In turn, `CC(C)(Oc1ccc(C(=O)c2ccccc2)cc1)C(=O)NC1CCN(C(=O)/C=C/c2ccccc2)CC1` had an Activity in the data set on C2C12 [1] of 121.3%. Further, the result in the data set with C2C12 [2] was Active.
In the data set with C2C12 [1], `CC(C)(Oc1ccc(C(=O)c2ccc(Cl)cc2)cc1)C(=O)N1CCC(NC(=O)/C=C/c2ccccc2)CC1` gave an Activity of 113%. The outcome in the data set on C2C12 [2] was Active.
Regarding `COc1cc(/C=C/C(=O)N2CCN(C(=O)C(C)(C)Oc3ccc(C(=O)c4ccccc4)cc3)CC2)ccc1O`, in the data set with C2C12 [1], the Activity is 136.4%. Besides, the result in the data set on C2C12 [2] was Active.
With `COc1cc(/C=C/C(=O)NC2CCN(C(=O)C(C)(C)Oc3ccc(C(=O)c4ccccc4)cc3)CC2)ccc1O`, in the data set with C2C12 [1], the Activity was determined as 128.5%. Further, the result in the data set on C2C12 [2] was Active.
Compound `CC(C)(Oc1ccc(C(=O)c2ccc(Cl)cc2)cc1)C(=O)N1CCN(C(=O)/C=C/c2ccccc2)CC1` displayed an Activity with C2C12 [1] of 129%. Besides, the result in the data set on C2C12 [2] was Active.
In the data set on C2C12 [1], `COc1ccc(/C=C/C(=O)NC2CCN(C(=O)C(C)(C)Oc3ccc(C(=O)c4ccc(Cl)cc4)cc3)CC2)cc1OC` yielded an Activity of 118.3%. The result with C2C12 [2] was Active.
Consider `O[C@@H]1CO[C@H]2[C@@H]1OC[C@H]2Oc1nc2nc(-c3ccc(-c4ccccc4)cc3)c(Cl)cc2[nH]1`, for which the result in the data set with Mus musculus [10] was Active.
Consider `CC(C)(Oc1ccc(C(=O)c2ccc(Cl)cc2)cc1)C(=O)NC1CCN(C(=O)/C=C/c2ccccc2)CC1`, for which, in the data set on C2C12 [1], the Activity was determined as 117.3%. The outcome in the data set on C2C12 [2] was Active.
The corresponding values for `CC(C)(Oc1ccc(C(=O)c2ccccc2)cc1)C(=O)N1CCC(NC(=O)/C=C/c2ccccc2)CC1` are 117.6% and “Active”.
On to `COc1cc(/C=C/C(=O)N2CCN(C(=O)C(C)(C)Oc3ccc(C(=O)c4ccc(Cl)cc4)cc3)CC2)ccc1O`, for which the Activity result was “Non-Toxic” in the data set with C2C12 [11]; 141.7% in the data set on C2C12 [1]; “Non-Toxic” in data set [13]; “Dose-Dependent Effect” with Mus musculus [17]; “Dose-Dependent Effect” in data set [18]; “Dose-Dependent Effect” in the data set with C2C12 [19]. In addition, the Activity result is “Non-Toxic” in the data set on HepG2 [20] and “Tde” in data set [21]. Also, the outcome (in the data set with HepG2 [12]; in the data set with Mus musculus [14]; with HepG2 [15]; in [16]; with C2C12 [2]; in the data set on Mus musculus [22]) was Active. In addition, the figures for the CLint scaled in data set [3] and in data set [23] were 156 mL/min/kg and 21 mL/min/kg, respectively. Also, the values for the remaining at 0.75 h in [4] and in data set [7] were 69% and 38%, respectively. In addition, the half-life – broadly, the time needed for the level to fall by half in the phase considered – in [5] amounted to 87 min; in data set [6], 33 min.
As to `COc1ccc(/C=C/C(=O)N2CCC(NC(=O)C(C)(C)Oc3ccc(C(=O)c4ccccc4)cc3)CC2)cc1OC`, the Activity in the data set on C2C12 [1] is 104.5%. The result in the data set with C2C12 [2] was Active.
In the data set on C2C12 [1], `CC(C)(Oc1ccc(C(=O)c2ccccc2)cc1)C(=O)N1CCN(C(=O)/C=C/c2ccccc2)CC1` came in with an Activity of 132.5%. Also, in the data set with C2C12 [2], the outcome was Active.
In the data set with C2C12 [1], `COc1cc(/C=C/C(=O)N2CCC(NC(=O)C(C)(C)Oc3ccc(C(=O)c4ccc(Cl)cc4)cc3)CC2)ccc1O` showed an Activity of 126.1%. Moreover, the result in the data set on C2C12 [2] was Active.
Compound `COc1cc(/C=C/C(=O)N2CCC(NC(=O)C(C)(C)Oc3ccc(C(=O)c4ccccc4)cc3)CC2)ccc1O` yielded an Activity in the data set with C2C12 [1] of 115.2%. In addition, the outcome with C2C12 [2] was Active.
Compound `COc1ccc(/C=C/C(=O)N2CCC(NC(=O)C(C)(C)Oc3ccc(C(=O)c4ccc(Cl)cc4)cc3)CC2)cc1OC` gave an Activity in the data set on C2C12 [1] of 125.1%. Besides, the outcome in the data set with C2C12 [2] was Active.
